System: LLC / LL/2-Luc2 / E0771 bone tumors
Experiment: Local tumor burden (bioluminescence imaging, thigh circumference ratio)
Type: in vivo, mouse
Description: Culture of LLC cells and measurement of local tumor burden: Murine LLC cells were cultured in high glucose (4.5 g/L) Dulbecco's Modified Eagle Medium (DMEM; ThermoFisher) supplemented with 10% fetal bovine serum (Gibco, ThermoFisher) and 1% Antibiotic-Antimycotic solution containing penicillin, streptomycin, and Amphotericin B (ThermoFisher, 15240062). Cells were cultured in the presence of 5% CO2 at 37° C. Cells were passaged using a 0.05% trypsin digest once they achieved 70% confluency. Prior to in vivo injection, cells were harvested with 0.05% trypsin digestion followed by several washes in PBS. Cell counts were performed using a hemocytometer and diluted to achieve a suspension of 1×10^8 ml-1 cells in PBS. To determine whether i.t. STING agonists altered local tumor burden induced by femoral inoculation with LLC cells, mice were lightly anesthetized with isoflurane at the conclusion of the experiment, followed by measurement of the total circumference of the widest aspect of the thigh, which accurately reflects tumor burden. Ratios were computed between the ipsilateral (LLC-inoculated) and contralateral (tumor-free) legs.
In vivo bioluminescence imaging. RediJect D-Luciferin Ultra was purchased from PerkinElmer (770505). Prior to in vivo imaging, mice were shaved in the region of interest depicted in the figure. Bioluminescence images of LL/2-Luc2 bearing mice were captured with IVIS Lumina III system 15 min after intraperitoneal injection of D-Luciferin (30 mg/kg). The IVIS acquisition control panel was set to following conditions for imaging: Exposure time=auto, Binning=medium, F/Stop=1, Emission Filter=open. The bioluminescence images were analyzed using Living Image software from PerkinElmer.
STING agonists suppress local bone cancer tumor burden and further metastasis. Intratumoral injection of STING agonists has been reported to reduce tumor growth by promoting T cell-mediated antitumor immunity in several preclinical animal studies. It is unknown, however, whether systemic administration of STING agonists can attenuate tumor progression in the bone marrow, which is generally regarded as an overwhelmingly immunosuppressive tumor microenvironment. To answer this question, luciferase-labeled LLC cells (LL/2-LUC2 cell line) were used to establish the metastatic bone cancer model via intrafemoral inoculation, thereby enabling measurement of local tumor burden by in vivo bioluminescent imaging. Mice were treated with vehicle or DMXAA (20 mg/kg, i.p. at d3 and d7), followed by in vivo bioluminescence imaging at d8, d11, and d15. […] To quantify this, we measured the ratio of the maximum thigh circumference (ipsilateral/contralateral), which accurately reflects local tumor volume. […]

Cc1ccc2c(=O)c3cccc(CC(=O)O)c3oc2c1C [DMXAA, 2-(5,6-dimethyl-9-oxo-9H-xanthen-4-yl)acetic acid]
local tumor burden (total flux, bioluminescence) (LL/2-Luc2, 20 mg/kg i.p. d3 and d7): lower local tumor burden at d11 and d15
local tumor burden, Batf3^+/+ vs Batf3^−/− (d17): only tumor-bearing Batf3^+/+ mice but not Batf3^−/− mice exhibited a decrease in local tumor burden
ratio of maximum thigh circumference, WT vs Rag1^−/− (d17): effectively reduced the ratio of maximum thigh circumference only in WT mice but not in Rag1^−/− mice
ratio of maximum thigh circumference (ipsilateral/contralateral) (day 17, LLC and E0771 models): could reduce the ratio of maximum thigh circumference
